Values quoted from earlier work in patent US20090117102A1, “Methods and compositions using CD3 agonists” (priority 2004, published 2009).

How the values were obtained:
T cell [1] = settings: Wong Transplantation 50 (1990)
T cell [2] = settings: Van Wauve, J. Immunol. 124 (1980)

Substance: OKT3: murine monoclonal antibody specific for the human CD3 antigen, first monoclonal antibody approved by the FDA
- T cell killer activity (T cell [1]): potent T cell killer
- T cell mitogen activity (T cell [2]): potent T cell mitogen
